Consider ten molecules from PubChem BioAssay (NCI).

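Each compound was tested at five concentrations against cells in 96-well plates for 48 hours. TGI: concentration producing complete growth inhibition.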

Holding throughout (assay): inhibition of tumour cell growth, NCI panel, 48 h
Test [1] has as its system HL-60(TB) leukemia.
For test [2], the system named is HCC-2998 colon.
Test [3] relates to MDA-N.
The subject of test [4] is ACHN renal.
The test system of test [5] is NCI-H226 lung.
Test [6] has as its system MDA-MB-231 breast.
In test [7] the test system is HOP-92 NSCLC.
In test [8] the test system is MCF7 breast.
Test [9] deals with OVCAR-3 ovarian.
In test [10] the test system is IGROV1 ovarian.
The test system of test [11] is HCT-116 colon.
Test [12] deals with M14 melanoma.
Test [13] has as its system RPMI-8226 leukemia.
The test system of test [14] is A498 renal.
For test [15], the system named is A549 NSCLC.
For test [16], the system named is EKVX NSCLC.
The subject of test [17] is SNB-75 CNS.
Test [18] has as its system OVCAR-4 ovarian.
Test [19] concerns NCI-H23 lung.
Test [20] has as its system SF-268 CNS.

On to `C=CC(c1ccccc1)[C@@]1(OC(C)=O)C(=O)C(=O)OC1C1COC(C)(C)O1` (stereo not given in full), for which the TGI in test [1] was found to be 5.86 µM; in [2], 32.8 µM; in [3], 24.1 µM; in test [4], 18.6 µM; in [5], 37.6 µM; in test [6], 28.5 µM. The TGI in test [7] is 15.9 µM; in [8], 22.8 µM; in [9], 24.8 µM; in test [10], 31.9 µM; in test [11] it was 24.7 µM; in test [12], 25.5 µM. Further, the TGI was 56.4 µM in [13]; 47.9 µM in [14]; 34.5 µM in [15]; 35.3 µM in test [16]; 36.6 µM in [17]; 30.5 µM in test [18]. Also, the figures for the TGI in [19] and in test [20] were 42.9 µM and 71.4 µM, respectively.
On to `CN(CCCCN1CCCC1)CCCN(C)C(=O)Cc1ccc(Cl)c(Cl)c1`, for which the TGI in test [1] was 34.1 µM; in test [2], 16.9 µM; in [3], 15.5 µM; in test [4] it was over 100 µM; in test [5] it was 51.9 µM; in test [6], 26.1 µM. Besides, the TGI in test [7] was 21.3 µM; in test [8], 34.4 µM; in test [9], 62.4 µM; in test [10], 45.2 µM; in test [11] it was 28.3 µM; in [12], 38.1 µM. For the same molecule, the TGI stood at 25.9 µM in test [13]; 30.7 µM in test [14]; 44.5 µM in test [15]; 37.6 µM in test [16]; 47.5 µM in test [17]; 53.8 µM in [18]. The TGI in test [19] is 37.7 µM; in test [20] it was over 100 µM.
`O=C(CCc1ccccc1)ON1C(=S)NC(c2ccccc2)(c2ccccc2)C1=S`: the TGI in test [1] was 61.2 µM; in test [2] it was over 100 µM; in test [3], over 100 µM; in [4], over 100 µM; in [5], 93.1 µM; in [6] it was over 100 µM. Moreover, the TGI is over 100 µM in [7]; over 100 µM in [8]; over 100 µM in [9]; 82.7 µM in test [10]; over 100 µM in [11]; over 100 µM in test [12]. Moreover, the TGI is 80.4 µM in [13]; over 100 µM in [14]; over 100 µM in test [15]; over 100 µM in test [16]; over 100 µM in test [17]; over 100 µM in [18]. The TGI is 97.6 µM in test [19] and over 100 µM in test [20].
On to `COc1cc(/C=C2\C[C@H]3[C@@H]4CC=C5C=C(N6CCCC6)CC[C@]5(C)[C@H]4CC[C@]3(C)C2=O)cc(OC)c1OC`, for which the TGI turned out to be 17.8 µM in [1]; 3.57 µM in [2]; 4.2 µM in test [3]; 5.46 µM in test [4]; 34.3 µM in [5]; 6.62 µM in [6]. For the same molecule, the TGI turned out to be 5.67 µM in [7]; 11.3 µM in test [8]; 4.07 µM in test [9]; 3.83 µM in test [10]; 3.93 µM in [11]; 5.37 µM in [12]. The TGI in test [13] was over 28 µM; in test [14] it was 21 µM; in test [15], over 51.7 µM; in [16], 16.5 µM; in test [17] it was 15.9 µM; in [18] it was 22.5 µM. The TGI in test [19] worked out at 7.96 µM; in [20], 5.05 µM.
Turning to `C=CCN1C(=O)/C(=C/c2ccc(OC)cc2)NC1=S`, the TGI in [1] is 3.81 µM; in [2], over 100 µM; in test [3] it was over 100 µM; in [4], over 100 µM; in [5], over 100 µM; in test [6], over 100 µM. Also, the TGI in [7], in [8], in test [9], in [10], in [11] and in test [12] was over 100 µM throughout. The TGI in test [13] is over 100 µM; in [14], over 100 µM; in [15] it was over 100 µM; in [16] it was 58.7 µM; in test [17], over 100 µM; in test [18], over 100 µM. Moreover, the TGI in test [19] and in [20] was over 100 µM each time.
As for `Cc1ccc(NC(=O)CSc2nc(C)nc3c2sc(=S)n3-c2ccccc2)cc1`, the TGI in [1] is over 10 µM; in [2] it was over 10 µM; in [3], over 10 µM; in test [4], over 10 µM; in test [5], 9.43 µM; in [6], over 10 µM. Also, the TGI is 9.04 µM in test [7]; over 10 µM in [8]; over 10 µM in test [9]; over 10 µM in [10]; over 10 µM in test [11]; over 10 µM in test [12]. Moreover, the TGI in test [13] was over 10 µM; in [14] it was over 10 µM; in test [15], over 10 µM; in [16] it was over 10 µM; in test [17] it was 4.84 µM; in test [18] it was 6.06 µM. In addition, the TGI in [19] and in [20] was over 10 µM throughout.
Turning to `O=c1[nH]/c(=C/c2ccc(OCc3ccccc3)cn2)c(=O)[nH]/c1=C/c1ccc([N+](=O)[O-])cc1`, the TGI in test [1], in [2], in test [3], in test [4], in test [5] and in test [6] was over 100 µM each time. The TGI in test [7], in [8], in [9], in [10], in test [11] and in test [12] was over 100 µM in each case. For the same molecule, the TGI in [13] was over 100 µM; in [14], over 84.3 µM; in test [15] it was over 100 µM; in test [16], over 100 µM; in [17], 70.2 µM; in test [18], over 100 µM. In addition, the TGI in test [19] and in [20] was over 100 µM throughout.
Consider `O=C1c2ccccc2C(=O)[C@@]23O[C@@]12C1(Oc2cccc4cccc(c24)O1)[C@@H]1O[C@@H]1[C@@H]3O`, for which the TGI worked out at 4.89 µM in test [1]; 22 µM in test [2]; 32 µM in [3]; 27.7 µM in test [4]; 28.9 µM in test [5]; 41.1 µM in test [6]. Besides, the TGI in test [7] is 31.9 µM; in [8] it was 14.6 µM; in [9] it was 12.6 µM; in test [10] it was 27.4 µM; in test [11], 15.1 µM; in [12], 23.4 µM. For the same molecule, the TGI in test [13] is over 23.1 µM; in test [14], over 100 µM; in test [15], over 49 µM; in test [16] it was 54.2 µM; in test [17], 24 µM; in test [18], 17.4 µM. Moreover, the TGI in test [19] turned out to be 29.6 µM; in [20], 25.4 µM.
Take `COC(=O)C1(c2cc3ccccc3n2S(=O)(=O)c2ccccc2)CC2C=CC1NC2` (stereo not given): the TGI was found to be 4.71 µM in [1]; 3.8 µM in test [2]; 6.23 µM in test [3]; 3.82 µM in test [4]; 21.4 µM in test [5]; 3.67 µM in test [6]. In addition, the TGI in test [7] came to 4.12 µM; in test [8], 3.06 µM; in [9], 5.43 µM; in [10] it was 3.22 µM; in [11] it was 6.16 µM; in test [12], 3.44 µM. Moreover, the TGI is 2.74 µM in test [13]; 13 µM in test [14]; 10.9 µM in test [15]; 15.1 µM in [16]; 17.9 µM in test [17]; 6.07 µM in test [18]. Besides, the values for the TGI in [19] and in test [20] were 6.85 µM and over 20.2 µM, respectively.
For `COc1ccc(/C=C/C(=O)/C=C/c2ccc(OC)cc2)cc1`, the TGI in test [1] was 53.7 µM; in [2], 15.7 µM; in test [3], 49 µM; in [4], over 100 µM; in [5] it was 98.3 µM; in test [6], over 100 µM. The TGI is 80.6 µM in test [7]; over 100 µM in test [8]; over 100 µM in test [9]; over 100 µM in [10]; 23.3 µM in test [11]; 57.2 µM in [12]. Also, the TGI in test [13] is 55.9 µM; in [14], over 100 µM; in test [15] it was over 100 µM; in [16], over 100 µM; in test [17], over 100 µM; in [18] it was over 100 µM. For the same molecule, the TGI in test [19] and in test [20] was over 100 µM throughout.
